Data taken from patent US11072596B2, “Poly(ADP-ribose) polymerase inhibitor, preparation method and use” (SELECTION BIOSCIENCE LLC, priority 2017, dated 2021).
Like-named read-outs stand apart in the source and are kept apart here.

Columns and labels:
MDA-MB-436 cells = experiment: Pharmacodynamic study on mouse MDA-MB-436 model; assay type: in vivo, BALB/c nude mice; conditions: for T/C / TGI / Tumor volume (day 39) / Tumor volume (day 0): MDA-MB-436 in nude mice; for T/C / TGI / Tumor volume (day 39) / rate of test animals in which the tumor completely disappeared: 50 mg/kg PO x 18 days; for T/C / TGI / Tumor volume (day 39): day 39; for Tumor volume (day 0): day 0, before dosing; for rate of test animals in which the tumor completely disappeared: observed until the 39th day; for inhibitory effect on the tumor growth, in words: 50 mg/kg, continuous PO administration for 18 days
Description: BALB/c nude mice, aged 6-8 weeks old, weighing 18-22 g, female, provided by Shanghai Lab Animal Research Center (Shanghai Xipuer-Beikai) with the animal certificate no: 20130016001914.
Human breast cancer MDA-MB-436 cells (ATCC, Manacas, Va., Article number (Art. No.): ATCC-HTB-130) were cultured in vitro in monolayer under the conditions of RPMI1640 medium with 10% fetal bovine serum and 37° C. 5% CO2 incubator. The passage was routinely digested with trypsin-EDTA twice a week. When the cell saturation was up to 80%-90% and reached the requirement, the cells were collected, counted and inoculated. 0.2 mL (1×10^7) MDA-MB-436 cells (added with matrix gel, volume ratio 1:1) were subcutaneously inoculated into the right back of each mouse, and mice were randomly grouped and dosed when the average tumor volume reached 157 mm^3.
2.5 g of methylcellulose was slowly added into 80 mL of deionized water in a suitable container under stirring, stirred until uniform, 10 mL of Tween 80 was added to the solution, stirred until uniform, continued to add deionized water to 500 mL, and stirred until uniform to obtain a vehicle solution. Then an appropriate amount of p-toluenesulfonate of example 23 was weighed, and an appropriate amount of the above vehicle solution was added and vortexed until uniform.
The subcutaneous tumor volumes of nude mice were measured 2-3 times a week, and the mice were weighed, and the data were recorded.
Experimental evaluation index: tumor growth inhibition rate TGI (%) or relative tumor proliferation rate T/C (%) was used for evaluation, wherein T was the experimental group, and C was the control group.
Calculation of relative tumor proliferation rate: If T>T0, T/C (%)=(T−T0)/(C−C0)×100%, if T<T0, T/C (%)=(T−T0)/T0×100%, wherein T and C were tumor volumes at the end of the experiment; T0 and C0 were tumor volumes at the beginning of the experiment.

PARP1 = molecular target: T1, PARP1 (Homo sapiens, UniProt P09874); experiment: PARP1 Colorimetric Assay (PARP-1 kinase inhibitory activity); assay type: biochemical; conditions: PARP1 colorimetric assay kit, 1 hour at room temperature; read-out: PARP1 (in vitro enzymatic inhibitory activity, IC50)
T1 construct: purchased BPS 80580
Description: PARP1 kinase activity was tested by the following method:
PARP1 Colorimetric Assay Kit (BPS, Cat #80580)
1. PARP1 Colorimetric Assay
2) 50 μL of diluted coating solution was added to each well for overnight at 4° C.
4) 200 μL of blocking buffer was added to each well and incubated at room temperature for 90 minutes.
1) A reaction solution was prepared in a ratio of […] 2.5 μL 10×PARP buffer+2.5 μL 10×PARP Assay mixture+5 μL Activated DNA+15 μL deionized water per well, and 25 μL of the reaction solution was added to each well (see Table 1).
4) 100 μL of colorimetric HRP substrate was added to each well and reacted at room temperature for 20 minutes.
5) 100 μL of 2 M H2SO4 was added to each well and OD 450 nm was read on a microplate reader.

CYP3A4 = molecular target: T2, CYP3A4 (Homo sapiens, UniProt P08684); experiment: Inhibition of human liver microsomal CYP450 enzymes, CYP3A4; assay type: in vitro ADME; conditions: human liver microsomes, Reference = ketoconazole
T2 construct: from tissue; host or cells: human liver microsomes (HLM)
T2 sequence (P08684 whole entry): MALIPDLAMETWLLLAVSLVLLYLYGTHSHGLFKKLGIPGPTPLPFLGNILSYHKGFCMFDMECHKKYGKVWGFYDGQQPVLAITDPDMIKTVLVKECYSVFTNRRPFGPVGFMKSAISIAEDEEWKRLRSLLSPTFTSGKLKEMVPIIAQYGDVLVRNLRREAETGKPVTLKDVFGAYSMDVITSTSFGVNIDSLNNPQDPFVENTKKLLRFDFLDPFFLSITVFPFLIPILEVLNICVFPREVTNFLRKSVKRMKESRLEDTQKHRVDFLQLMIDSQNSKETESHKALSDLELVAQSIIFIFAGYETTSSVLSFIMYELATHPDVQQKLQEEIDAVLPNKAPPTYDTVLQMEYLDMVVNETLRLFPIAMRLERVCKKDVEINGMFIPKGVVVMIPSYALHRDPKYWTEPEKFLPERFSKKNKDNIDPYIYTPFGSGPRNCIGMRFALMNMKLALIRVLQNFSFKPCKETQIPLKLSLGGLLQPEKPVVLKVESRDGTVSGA
Description: The inhibitory effects of the compound of the present disclosure on the CYP450 enzymes of six human subtypes were determined by the following experimental method:
Substrate concentration: CYP1A2: Phenacetin at 30 μM; CYP2C9: Diclofenac at 10 μM; CYP2C19: S-Mephenytoin at 35 μM; CYP3A4: Midazolam at 5 μM and Testosterone at 80 μM; CYP2D6: Bufuralol at 10 μM.
0.2 mg/mL of HLM was added to the test wells, 400 μL per well, and then the gradient diluted 400× test compound was added to the corresponding wells.
0.2 mg/mL of HLM was added to the test wells, 200 μL per well, and then the gradient-diluted reference inhibitor was added to the corresponding wells. Steps 6 and 7 needed to be performed on ice.
30 μL of test compound and reference compound were mixed in 0.2 mg/mL of HLM solution (see steps 6 and 7).
15 μL of 4× substrate solution (see step 4) was added.
Preheated 8 mM of NADPH solution was added to the 96-well test plate (see step 3) to initiate the reaction, 15 μL per well.
The test plate was incubated at 37° C.: 3A4 for 5 minutes, each of 1A2, 2C9 and 2D6 for 10 minutes, and 2C19 for 45 minutes.
ACN containing internal reference was added to stop the reaction, 120 μL per well.
50 μL of supernatant from each well was transferred to a 96-well sample plate containing 50 μL of ultrapure water (Millipore, ZMQS50F01) for LC/MS analysis. […]

T1 sequence (P09874 whole entry): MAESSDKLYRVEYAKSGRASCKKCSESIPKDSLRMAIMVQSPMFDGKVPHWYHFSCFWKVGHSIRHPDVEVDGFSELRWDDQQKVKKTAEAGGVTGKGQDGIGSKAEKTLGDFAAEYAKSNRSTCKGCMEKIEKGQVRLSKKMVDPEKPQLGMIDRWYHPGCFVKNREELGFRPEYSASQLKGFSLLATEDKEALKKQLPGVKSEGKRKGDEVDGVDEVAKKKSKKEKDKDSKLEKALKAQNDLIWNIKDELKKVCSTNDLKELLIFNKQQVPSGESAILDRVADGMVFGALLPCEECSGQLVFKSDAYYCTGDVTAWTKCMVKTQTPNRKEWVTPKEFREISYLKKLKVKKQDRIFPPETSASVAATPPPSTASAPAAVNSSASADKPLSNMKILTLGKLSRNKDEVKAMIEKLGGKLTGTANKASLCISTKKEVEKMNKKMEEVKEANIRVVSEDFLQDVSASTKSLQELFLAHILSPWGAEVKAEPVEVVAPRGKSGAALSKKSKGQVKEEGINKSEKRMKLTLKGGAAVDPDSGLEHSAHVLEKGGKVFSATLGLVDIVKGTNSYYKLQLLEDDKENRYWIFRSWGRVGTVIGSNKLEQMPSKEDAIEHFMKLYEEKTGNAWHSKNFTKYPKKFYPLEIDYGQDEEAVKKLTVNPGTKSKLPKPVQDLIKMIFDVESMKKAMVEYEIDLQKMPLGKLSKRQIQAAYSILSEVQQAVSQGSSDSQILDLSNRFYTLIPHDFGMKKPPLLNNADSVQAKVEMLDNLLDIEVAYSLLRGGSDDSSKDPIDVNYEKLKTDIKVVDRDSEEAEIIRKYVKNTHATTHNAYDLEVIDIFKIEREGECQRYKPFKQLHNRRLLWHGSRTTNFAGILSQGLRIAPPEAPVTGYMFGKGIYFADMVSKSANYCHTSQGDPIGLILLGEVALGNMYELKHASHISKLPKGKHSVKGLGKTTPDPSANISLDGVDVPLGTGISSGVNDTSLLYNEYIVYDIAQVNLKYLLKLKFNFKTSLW

## NC(=O)c1cccc2cn(-c3ccc([C@@H]4CCCNC4)cc3)nc12 [Niraparib, reference compound]
MDA-MB-436 cells
  T/C: 1.5%
  TGI: 98.5%
  Tumor volume (day 39): 187 mm^3
  Tumor volume (day 0): 157 mm^3
MDA-MB-436 cells; nude mouse MDA-MB-436 model
  rate of test animals in which the tumor completely disappeared: zero
  inhibitory effect on the tumor growth, in words: very strong inhibitory effect

## NC(=O)c1cccc2cn(-c3ccc([C@]4(F)CCCNC4)cc3)nc12 (single isomer, unassigned) [Example 23, (R or S)-2-(4-(3-fluoropiperidin-3-yl)phenyl)-2H-indazole-7-carboxamide]
PARP1
  IC50: < 0.1 µM
MDA-MB-436 cells
  T/C: −68%
  TGI: 168%
  Tumor volume (day 39): 49 mm^3
  Tumor volume (day 0): 157 mm^3
MDA-MB-436 cells; nude mouse MDA-MB-436 model, 50 mg/kg PO for 18 days
  anti-tumor activity compared with positive control Niraparib, in words: stronger
MDA-MB-436 cells; nude mouse MDA-MB-436 model
  rate of test animals in which the tumor completely disappeared: 50%
  inhibitory effect on the tumor growth, in words: very strong inhibitory effect
CYP3A4; substrate Midazolam 5 μM, read-out: IC50 3A4 (Midazolam)
  IC50: > 10 µM
CYP3A4; substrate Testosterone 80 μM, read-out: IC50 3A4 (Testosterone)
  IC50: > 10 µM
